Experiment [1] has as its system APP co-expressed in mouse neuron cell line N2A. The experiment in a line: α-CTF produced by APP co-expressed in N2A cells (Western blot). The format is cell-based. As to conditions: Western blot, vs GFP control. On the procedure: (§1) Plasmids were transfected in HEK 293T or N2A cells for 36-48 hours and then lysed in cell lysis buffer [10% 1M tris-HCl (pH=6.8), 4% SDS, 20% glycerol, 0.01% bromophenol blue]. Lysates were shaken at room temperature for 10 min, then boiled for 10 min, and centrifuged at 12,000×g for 10 min. Proteins were run on 8% or 12% Tris-glycine SDS-PAGE and transferred to PVDF membranes (Life Technologies). Samples were incubated overnight at 4° C. with primary antibody diluted in 5% BSA buffer (in 1×TBST). After washing 3 times with 1×TBST, they were incubated with secondary antibody diluted in 5% BSA buffer (in 1×TBST) for 2 hours at room temperature. Finally, after washing 3 times with 1×TBST, the signal was detected by ECL Western blotting substrate (Solarbio, PE0010).
(§2) Data were analyzed by GraphPad Prism software (v6) using unpaired, paired, or one-sample t-tests. Aβ40 and Aβ42 levels were normalized to the corresponding GFP controls. α-CTF levels were normalized to FL-APP and corresponding GFP controls. All data are represented as mean±SEM. Statistical significance was defined as p<0.05. One, two, three and four stars (*) in the graph indicate p-values <0.05, <0.01, <0.001 and <0.0001, respectively.
Background: A western blot detects proteins with antibodies after separation by electrophoresis.

In experiment [2] the test system is HEK 293T cells expressing APP. The experiment in a line: APP-expressing HEK 293T cells co-incubated with culture medium containing secreted ApoE2 or ApoE CT: α-CTF. The experiment is classed as cell-based, human. To be noted: vs GFP control. On the procedure:
(§3) • a) A plasmid expressing the target protein in mammalian cells was constructed, and the protein expression promoter is CAG. • b) The target protein was expressed in HEK 293T cell line. Cells were subcultured one day before transfection, and transfection was performed when the degree of cell adhesion reached 70%-80%. The transfection reagent was lipofectamine2000 (ThermoFisher). • c) 4-6 hours post transfection, the medium were replaced with fresh cell culture medium. • d) 36-48 hours post transfection, the cells were lysed (10% 1M tris-HCl (pH=6.8), 4% SDS, 20% glycerol, 0.01% bromophenol blue), and the protein samples were collected and used for Western blot or stored in a −80° C. freezer. • e) Polyacrylamide gel electrophoresis. Before protein loading, the protein was boiled at 98° C. for 10 min, and then centrifuged at 12000 rpm for 10 min. Electrophoresis: 80V for the upper stacking gel; 120V for the lower separating gel. • f) Protein transfer. […]

Experiment [3] relates to γ-secretase (PS1, PS2) knockout HEK 293T cells. As to the kind of experiment: PS1 KO, PS2 KO and PS1/2 dKO HEK 293T cell lines: α-CTF and Aβ40. The format is cell-based, human. To be noted: PS1 and PS2 double knockout HEK 293T cells. On the procedure: as §3
In experiment [4] the test system is human APP co-expressed in HEK 293T cells. As to the kind of experiment: α-CTF produced by APP co-expressed in HEK 293T cells (Western blot). The format is cell-based. As to conditions: Western blot, vs GFP control. As for the experimental part:
• a) A plasmid expressing the target protein in mammalian cells was constructed, and the protein expression promoter is CAG. • b) The target protein was expressed in HEK 293T cell line. Cells were subcultured one day before transfection, and transfection was performed when the degree of cell adhesion reached 70%-80%. The transfection reagent was lipofectamine2000 (ThermoFisher). • c) 4-6 hours post transfection, the medium were replaced with fresh cell culture medium. • d) 36-48 hours post transfection, the cells were lysed (10% 1M tris-HCl (pH=6.8), 4% SDS, 20% glycerol, 0.01% bromophenol blue), and the protein samples were collected and used for Western blot or stored in a −80° C. freezer. • e) Polyacrylamide gel electrophoresis. Before protein loading, the protein was boiled at 98° C. for 10 min, and then centrifuged at 12000 rpm for 10 min. Electrophoresis: 80V for the upper stacking gel; 120V for the lower separating gel. • f) Protein transfer. The filter paper was soaked in the electrophoresis solution before use, and the PVDF membrane was put in methanol for 10s to activate, and the gel after electrophoresis was taken out from the electrophoresis tank, put in the order of filter paper—PVD membrane—gel-filter paper from bottom to top, and they were put into the transfer instrument, with transferring in constant current at 0.1 A for 70 min. • g) Blocking and antibody incubation: the transferred PVDF membrane was placed in 5% BSA/TBST blocking solution, and blocked on a shaker at room temperature for 1 hour. The primary antibody was used to incubate at 4° C. overnight on a shaker (12-16 h); 1×TBST was used to wash three times, once every 10 minutes; the secondary antibody was used to incubate, shaked at room temperature for 1-2 h; 1×TBST was used to wash three times, once every 10 minutes. • h) Imaging by development: development was performed with ECL chemiluminescence hypersensitive chromogenic reagent.
as §1, §2

Entries after “also recorded” stand apart in the source; their conditions may differ.

As for “ApoE2: human apolipoprotein E2, full-length 299 amino acid residues, SEQ ID NO: 12”, the figures for the “α-CTF produced by co-expressed APP” value in experiment [1] and in experiment [4] were “significantly increased the α-CTF levels” and “can significantly increase α-CTF; also recorded: significantly increased the α-CTF levels”, respectively. For the same substance, the “α-CTF produced by APP in cells co-incubated with protein in culture medium” value in experiment [2] is listed as “does not significantly alter α-CTF levels; also recorded: does not change the α-CTF; also recorded: does not alter the α-CTF”. The “α-CTF in PS1/2 dKO cells” value in experiment [3] was “did not further increase α-CTF levels”.

The values above are taken from patent publication US20250108100A1, “C-TERMINAL FRAGMENT OF APOLIPOPROTEIN E AND APPLICATION THEREOF IN INHIBITING y-SECRETASE ACTIVITY” (SYNPHATEC (SHANGHAI) BIOPHARMACEUTICAL TECHNOLOGY CO., LTD., priority 2022, published 2025).
